The values that follow come from publication PMC4552603 (Pharmacology, biochemistry, and behavior, 2015).

Where a name gives a salt, the structure may show the parent alone.

Test [1] relates to rats. Conditions: rat, in vivo.
Test [2] relates to rats. The experiment in a line: Conditioned place preference. In kind it is in vivo, rat. As to conditions: morphine 1 mg/kg s.c.; for mean change from baseline (time in drug-paired compartment): rats.

In the case of `CN1CC[C@]23c4c5ccc(O)c4O[C@H]2[C@@H](O)C=C[C@H]3[C@H]1C5` [Morphine, Morphine sulfate], the “responding (drug infusions) vs saline” value with rats [1] was “significantly greater responding than saline”. For the same molecule, the place preference entry in the test with rats [2] (vs saline, two-way ANOVA p = 0.0013) was “significant place preference”. The “mean change from baseline (time in drug-paired compartment)” value with rats [2] (test session one) is “+83.4 sec”; in the test on rats [2] (test session two), “+96.62 sec”.
